Test results as given in ChEMBL document CHEMBL1201862, “PubChem BioAssay data set” (2004).
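Briefly, cells in 96-well plates were exposed to five compound concentrations for 48 h, and endpoints were estimated by linear interpolation. GI50 marks 50% less growth.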 Activity calls are given as the source filed them. Rule as the data show it: active = GI50 up to about 1.1 µM and inactive = higher.

Experiments:
Assay in all cases: inhibition of tumour cell growth, NCI panel, 48 h
ACHN = tested on: ACHN
HOP-92 = tested on: HOP-92
NCI-H522 = tested on: NCI-H522
SW-620 = tested on: SW-620
SK-MEL-2 = tested on: SK-MEL-2
T47D = tested on: T47D
HCC 2998 = tested on: HCC 2998
NCI-H23 = tested on: NCI-H23
SF-295 = tested on: SF-295
UACC-257 = tested on: UACC-257
K562 = tested on: K562
SR = tested on: SR
UO-31 = tested on: UO-31
SF-268 = tested on: SF-268
SK-MEL-5 = tested on: SK-MEL-5
A549 = tested on: A549
RPMI-8226 = tested on: RPMI-8226
Hs-578T = tested on: Hs-578T
MOLT-4 = tested on: MOLT-4
SK-MEL-28 = tested on: SK-MEL-28
EKVX = tested on: EKVX
PC-3 = tested on: PC-3
MCF7 = tested on: MCF7
Malme-3M = tested on: Malme-3M
SNB-75 = tested on: SNB-75
TK-10 = tested on: TK-10
HCT-116 = tested on: HCT-116
NCI/ADR-RES = tested on: NCI/ADR-RES
MDA-N = tested on: MDA-N
HT-29 = tested on: HT-29
MDA-MB-435 = tested on: MDA-MB-435
SK-OV-3 = tested on: SK-OV-3
OVCAR-4 = tested on: OVCAR-4
NCI-H226 = tested on: NCI-H226
U-251 = tested on: U-251
RXF 393 = tested on: RXF 393
UACC-62 = tested on: UACC-62
IGROV-1 = tested on: IGROV-1
HCT-15 = tested on: HCT-15
COLO 205 = tested on: COLO 205
BT-549 = tested on: BT-549
CAKI-1 = tested on: CAKI-1
KM12 = tested on: KM12
SF-539 = tested on: SF-539
A498 = tested on: A498
M14 = tested on: M14
786-0 = tested on: 786-0
SN12C = tested on: SN12C
OVCAR-8 = tested on: OVCAR-8
DU-145 = tested on: DU-145
HL-60 = tested on: HL-60
OVCAR-3 = tested on: OVCAR-3
NCI-H460 = tested on: NCI-H460
HOP-62 = tested on: HOP-62
LOX IMVI = tested on: LOX IMVI
MDA-MB-231 = tested on: MDA-MB-231
CCRF-CEM = tested on: CCRF-CEM
OVCAR-5 = tested on: OVCAR-5
SNB-19 = tested on: SNB-19

SMILES: C=CC(C)(C)N[C@@H](C(=O)N1CCC[C@H]1c1nc(-c2nc(C(=O)OCC=C(C)C)c(C)o2)c(C)o1)C(C)C
- GI50 (ACHN): 29.4 µM (inactive)
- GI50 (HOP-92): 17.5 µM (inactive)
- GI50 (NCI-H522): 16.9 µM (inactive)
- GI50 (SW-620): 22.3 µM (inactive)
- GI50 (SK-MEL-2): 34 µM (inactive)
- GI50 (T47D): 21.3 µM (inactive)
- GI50 (HCC 2998): 18.9 µM (inactive)
- GI50 (NCI-H23): 21.8 µM (inactive)
- GI50 (SF-295): 20.1 µM (inactive)
- GI50 (UACC-257): 20.5 µM (inactive)
- GI50 (K562): 36.5 µM (inactive)
- GI50 (SR): 18.1 µM (inactive)
- GI50 (UO-31): 14.3 µM (inactive)
- GI50 (SF-268): 20.9 µM (inactive)
- GI50 (SK-MEL-5): 22.3 µM (inactive)
- GI50 (A549): 29.9 µM (inactive)
- GI50 (RPMI-8226): 18.7 µM (inactive)
- GI50 (Hs-578T): 18 µM (inactive)
- GI50 (MOLT-4): 15.2 µM (inactive)
- GI50 (SK-MEL-28): 18.5 µM (inactive)
- GI50 (EKVX): 32.3 µM (inactive)
- GI50 (PC-3): 25.5 µM (inactive)
- GI50 (MCF7): 23.4 µM (inactive)
- GI50 (Malme-3M): 18.6 µM (inactive)
- GI50 (SNB-75): 33.8 µM (inactive)
- GI50 (TK-10): 24.3 µM (inactive)
- GI50 (HCT-116): 17.8 µM (inactive)
- GI50 (NCI/ADR-RES): 22.6 µM (inactive)
- GI50 (MDA-N): 18 µM (inactive)
- GI50 (HT-29): 19.1 µM (inactive)
- GI50 (MDA-MB-435): 18.5 µM (inactive)
- GI50 (SK-OV-3): 27.1 µM (inactive)
- GI50 (OVCAR-4): 22.8 µM (inactive)
- GI50 (NCI-H226): 17 µM (inactive)
- GI50 (U-251): 21.1 µM (inactive)
- GI50 (RXF 393): 30.7 µM (inactive)
- GI50 (UACC-62): 18 µM (inactive)
- GI50 (IGROV-1): 28.8 µM (inactive)
- GI50 (HCT-15): 22 µM
- GI50 (COLO 205): 22.4 µM (inactive)
- GI50 (BT-549): 23.6 µM (inactive)
- GI50 (CAKI-1): 35.5 µM (inactive)
- GI50 (KM12): 23 µM (inactive)
- GI50 (SF-539): 16.3 µM (inactive)
- GI50 (A498): 19.7 µM (inactive)
- GI50 (M14): 29 µM (inactive)
- GI50 (786-0): 19.5 µM (inactive)
- GI50 (SN12C): 18.5 µM (inactive)
- GI50 (OVCAR-8): 23.4 µM (inactive)
- GI50 (DU-145): 17.2 µM (inactive)
- GI50 (HL-60): 20.6 µM (inactive)
- GI50 (OVCAR-3): 23.1 µM (inactive)
- GI50 (NCI-H460): 24 µM (inactive)
- GI50 (HOP-62): 21.6 µM (inactive)
- GI50 (LOX IMVI): 30.6 µM (inactive)
- GI50 (MDA-MB-231): 21.3 µM (inactive)
- GI50 (CCRF-CEM): 11.7 µM (inactive)
- GI50 (OVCAR-5): 35.9 µM (inactive)
- GI50 (SNB-19): 19.7 µM (inactive)

SMILES: CN(C)CCNC(=O)c1cccc2nc3c(nc12)-c1ccccc1C3=O
- GI50 (ACHN): 4.78 µM (inactive)
- GI50 (HOP-92): 16.4 µM (inactive)
- GI50 (NCI-H522): 13.5 µM (inactive)
- GI50 (SW-620): 6.43 µM (inactive)
- GI50 (SK-MEL-2): 17 µM (inactive)
- GI50 (T47D): 12.9 µM (inactive)
- GI50 (HCC 2998): 15 µM (inactive)
- GI50 (NCI-H23): 13.3 µM (inactive)
- GI50 (SF-295): 17.9 µM (inactive)
- GI50 (UACC-257): 13.4 µM (inactive)
- GI50 (K562): 3.16 µM (inactive)
- GI50 (SR): 1.14 µM (inactive)
- GI50 (UO-31): 12.1 µM (inactive)
- GI50 (SF-268): 11.8 µM (inactive)
- GI50 (SK-MEL-5): 12.1 µM (inactive)
- GI50 (A549): 12.5 µM (inactive)
- GI50 (RPMI-8226): 7.38 µM (inactive)
- GI50 (Hs-578T): 18.5 µM (inactive)
- GI50 (MOLT-4): 0.721 µM (active)
- GI50 (SK-MEL-28): 16 µM (inactive)
- GI50 (EKVX): 22.8 µM (inactive)
- GI50 (PC-3): 17.6 µM (inactive)
- GI50 (MCF7): 6.34 µM (inactive)
- GI50 (Malme-3M): 9.95 µM (inactive)
- GI50 (SNB-75): 13.8 µM (inactive)
- GI50 (TK-10): 18.6 µM (inactive)
- GI50 (HCT-116): 12.7 µM (inactive)
- GI50 (NCI/ADR-RES): 12.4 µM (inactive)
- GI50 (MDA-N): 9.89 µM (inactive)
- GI50 (HT-29): 6.76 µM (inactive)
- GI50 (MDA-MB-435): 14.8 µM (inactive)
- GI50 (SK-OV-3): 26.7 µM (inactive)
- GI50 (OVCAR-4): 20.8 µM (inactive)
- GI50 (NCI-H226): 14.4 µM (inactive)
- GI50 (U-251): 13.4 µM (inactive)
- GI50 (RXF 393): 16.8 µM (inactive)
- GI50 (UACC-62): 19.1 µM (inactive)
- GI50 (IGROV-1): 20.9 µM (inactive)
- GI50 (HCT-15): 10.3 µM
- GI50 (COLO 205): 17.6 µM (inactive)
- GI50 (BT-549): 14.3 µM (inactive)
- GI50 (CAKI-1): 13.6 µM (inactive)
- GI50 (KM12): 10 µM (inactive)
- GI50 (SF-539): 10.2 µM (inactive)
- GI50 (A498): 14.4 µM (inactive)
- GI50 (M14): 15.8 µM (inactive)
- GI50 (786-0): 8.11 µM (inactive)
- GI50 (SN12C): 11 µM (inactive)
- GI50 (OVCAR-8): 16.4 µM (inactive)
- GI50 (DU-145): 29.9 µM (inactive)
- GI50 (HL-60): 6.3 µM (inactive)
- GI50 (OVCAR-3): 16.6 µM (inactive)
- GI50 (NCI-H460): 4.99 µM (inactive)
- GI50 (HOP-62): 6.17 µM (inactive)
- GI50 (LOX IMVI): 2.83 µM (inactive)
- GI50 (MDA-MB-231): 7.89 µM (inactive)
- GI50 (CCRF-CEM): 2.56 µM (inactive)
- GI50 (OVCAR-5): 24.8 µM (inactive)
- GI50 (SNB-19): 18.3 µM (inactive)
